Counter-ions that a name gives are not always drawn. Like-named read-outs stand apart in the source and are kept apart here.
How the values were obtained:
Experiment in all cases: AK assay 384-well format, Prestwick library screening
[1] = tested on: P. aeruginosa; assay type: cell-based, Pseudomonas aeruginosa; settings: 50 μM final drug concentration; for fold induction at 50 µM: Pseudomonas aeruginosa, 3 h
[2] = tested on: S. aureus strain USA300-0114; assay type: cell-based, Staphylococcus aureus; settings: 50 μM final drug concentration; for fold induction at 50 µM: Staphylococcus aureus, USA300, 3 h
[3] = tested on: E. coli; assay type: cell-based, Escherichia coli; settings: 50 μM final drug concentration; for fold induction at 50 µM: Escherichia coli, 3 h
[4] = tested on: A. baumannii strain 98-37-09; assay type: cell-based, Acinetobacter baumannii; settings: 50 μM final drug concentration; for fold induction at 50 µM: Acinetobacter baumannii, 983709, 3 h
[5] = tested on: E. cloacae; assay type: cell-based, Enterobacter cloacae; settings: 50 μM final drug concentration; for fold induction at 50 µM: Enterobacter cloacae, 3 h
[6] = tested on: K. pneumoniae; assay type: cell-based, Klebsiella pneumoniae; settings: 50 μM final drug concentration; for fold induction at 50 µM: Klebsiella pneumoniae, 3 h
[7] = tested on: E. faecium; assay type: cell-based, Enterococcus faecium; settings: 50 μM final drug concentration; for fold induction at 50 µM: Enterococcus faecium, 3 h
[8] = planktonic, […], read-out: AK-based Prestwick Library Screening Results, P. aeruginosa (fold increase in extracellular AK activity)
[9] = planktonic, […], read-out: AK-based Prestwick Library Screening Results, S. aureus (fold increase in extracellular AK activity)
[10] = planktonic, […], read-out: AK-based Prestwick Library Screening Results, E. coli (fold increase in extracellular AK activity)
[11] = planktonic, […], read-out: AK-based Prestwick Library Screening Results, A. baumannii (fold increase in extracellular AK activity)
[12] = planktonic, […], read-out: AK-based Prestwick Library Screening Results, E. cloacae (fold increase in extracellular AK activity)
[13] = planktonic, […], read-out: AK-based Prestwick Library Screening Results, K. pneumoniae (fold increase in extracellular AK activity)
[14] = planktonic, […], read-out: AK-based Prestwick Library Screening Results, E. faecium (fold increase in extracellular AK activity)

SMILES: CN[C@@H]1[C@@H](O)[C@@H](O[C@@H]2[C@@H](O)[C@H](O[C@H]3OC(CN)=CC[C@H]3N)[C@@H](N)C[C@H]2N)OC[C@]1(C)O [Sisomicin sulfate]
- fold induction at 50 µM ([1]; planktonic P. aeruginosa, cutoff for positive-scoring molecules 3-fold increase, read-out: AK-based Prestwick Library Screening Results, P. aeruginosa (increase in extracellular AK activity)): 0.9
- fold induction at 50 µM ([2]; planktonic S. aureus, cutoff for positive-scoring molecules 3-fold increase, read-out: AK-based Prestwick Library Screening Results, S. aureus (increase in extracellular AK activity)): 0.6
- fold induction at 50 µM ([3]; planktonic E. coli, cutoff for positive-scoring molecules 3-fold increase, read-out: AK-based Prestwick Library Screening Results, E. coli (increase in extracellular AK activity)): 0.8
- fold induction at 50 µM ([4]; planktonic A. baumannii, cutoff for positive-scoring molecules 3-fold increase, read-out: AK-based Prestwick Library Screening Results, A. baumannii (increase in extracellular AK activity)): 0.9
- fold induction at 50 µM ([5]; planktonic E. cloacae, cutoff for positive-scoring molecules 3-fold increase, read-out: AK-based Prestwick Library Screening Results, E. cloacae (increase in extracellular AK activity)): 1
- fold induction at 50 µM ([6]; planktonic K. pneumoniae, cutoff for positive-scoring molecules 3-fold increase, read-out: AK-based Prestwick Library Screening Results, K. pneumoniae (increase in extracellular AK activity)): 0.6
- fold induction at 50 µM ([7]; planktonic E. faecium, cutoff for positive-scoring molecules 3-fold increase, read-out: AK-based Prestwick Library Screening Results, E. faecium (increase in extracellular AK activity)): 0.9

SMILES: COc1ccc2c(OC)c3ccoc3nc2c1OC [Skimmianine]
- fold induction at 50 µM [1, 8]: 0.6
- fold induction at 50 µM [2, 9]: 0.6
- fold induction at 50 µM [3, 10]: 0.6
- fold induction at 50 µM [4, 11]: 0.5
- fold induction at 50 µM [5, 12]: 1.1
- fold induction at 50 µM [6, 13]: 0.5
- fold induction at 50 µM [7, 14]: 0.6

SMILES: CC1CCC2C(C)C3C(CC4C5CC=C6CC(OC7OC(CO)C(O)C(OC8OC(CO)C(O)C(O)C8O)C7OC7OC(C)C(O)C(O)C7O)CCC6(C)C5CCC43C)N2C1 (stereo not drawn) [Solanine alpha]
- AK-based Prestwick Library Screening Results, P. aeruginosa (fold increase in extracellular AK activity) ([1]; planktonic, […]): 1.2
- AK-based Prestwick Library Screening Results, S. aureus (fold increase in extracellular AK activity) ([2]; planktonic, […]): 1.2
- AK-based Prestwick Library Screening Results, E. coli (fold increase in extracellular AK activity) ([3]; planktonic, […]): 1.2
- AK-based Prestwick Library Screening Results, A. baumannii (fold increase in extracellular AK activity) ([4]; planktonic, […]): 1.3
- AK-based Prestwick Library Screening Results, E. cloacae (fold increase in extracellular AK activity) ([5]; planktonic, […]): 1.7
- AK-based Prestwick Library Screening Results, K. pneumoniae (fold increase in extracellular AK activity) ([6]; planktonic, […]): 1.2
- AK-based Prestwick Library Screening Results, E. faecium (fold increase in extracellular AK activity) ([7]; planktonic, […]): 1.0

SMILES: C[C@@H]1CC[C@@]2(NC1)O[C@H]1C[C@H]3[C@@H]4CC=C5C[C@@H](O)CC[C@]5(C)[C@H]4CC[C@]3(C)[C@H]1[C@@H]2C [Solasodine]
- fold induction at 50 µM [1, 8]: 1
- fold induction at 50 µM [2, 9]: 0.6
- fold induction at 50 µM [3, 10]: 1
- fold induction at 50 µM [4, 11]: 0.7
- fold induction at 50 µM [5, 12]: 0.9
- fold induction at 50 µM [6, 13]: 0.7
- fold induction at 50 µM [7, 14]: 0.9

SMILES: CC(C)NCC(O)c1ccc(NS(C)(=O)=O)cc1 (stereo not drawn) [Sotalol hydrochloride]
- fold induction at 50 µM ([1]; cutoff for positive-scoring molecules 3-fold increase, read-out: AK-based Prestwick Library Screening Results, P. aeruginosa (fold increase in extracellular AK activity)): 0.4
- fold induction at 50 µM ([2]; cutoff for positive-scoring molecules 3-fold increase, read-out: AK-based Prestwick Library Screening Results, S. aureus (fold increase in extracellular AK activity)): 0.4
- fold induction at 50 µM ([3]; cutoff for positive-scoring molecules 3-fold increase, read-out: AK-based Prestwick Library Screening Results, E. coli (fold increase in extracellular AK activity)): 0.4
- fold induction at 50 µM ([4]; cutoff for positive-scoring molecules 3-fold increase, read-out: AK-based Prestwick Library Screening Results, A. baumannii (fold increase in extracellular AK activity)): 0.5
- fold induction at 50 µM ([5]; cutoff for positive-scoring molecules 3-fold increase, read-out: AK-based Prestwick Library Screening Results, E. cloacae (fold increase in extracellular AK activity)): 0.4
- fold induction at 50 µM ([6]; cutoff for positive-scoring molecules 3-fold increase, read-out: AK-based Prestwick Library Screening Results, K. pneumoniae (fold increase in extracellular AK activity)): 0.5
- fold induction at 50 µM ([7]; cutoff for positive-scoring molecules 3-fold increase, read-out: AK-based Prestwick Library Screening Results, E. faecium (fold increase in extracellular AK activity)): 0.8

SMILES: C1CCN2C[C@@H]3C[C@@H](CN4CCCC[C@@H]34)[C@H]2C1 [Sparteine (−)]
- AK-based Prestwick Library Screening Results, P. aeruginosa (fold increase in extracellular AK activity) ([1]; planktonic, […]): 1.0
- AK-based Prestwick Library Screening Results, S. aureus (fold increase in extracellular AK activity) ([2]; planktonic, […]): 1.1
- AK-based Prestwick Library Screening Results, E. coli (fold increase in extracellular AK activity) ([3]; planktonic, […]): 1.3
- AK-based Prestwick Library Screening Results, A. baumannii (fold increase in extracellular AK activity) ([4]; planktonic, […]): 1.0
- AK-based Prestwick Library Screening Results, E. cloacae (fold increase in extracellular AK activity) ([5]; planktonic, […]): 1.7
- AK-based Prestwick Library Screening Results, K. pneumoniae (fold increase in extracellular AK activity) ([6]; planktonic, […]): 1.0
- AK-based Prestwick Library Screening Results, E. faecium (fold increase in extracellular AK activity) ([7]; planktonic, […]): 1.0

SMILES: CN[C@@H]1[C@H](O)[C@H](NC)[C@H]2O[C@@]3(O)C(=O)C[C@@H](C)O[C@H]3O[C@@H]2[C@H]1O [Spectinomycin dihydrochloride]
- fold induction at 50 µM ([1]; planktonic, cutoff for positive-scoring molecules 3-fold increase, read-out: AK-based Prestwick Library Screening Results, P. aeruginosa (fold increase in extracellular AK activity)): 0.5
- fold induction at 50 µM ([2]; planktonic, cutoff for positive-scoring molecules 3-fold increase, read-out: AK-based Prestwick Library Screening Results, S. aureus (fold increase in extracellular AK activity)): 0.6
- fold induction at 50 µM ([3]; planktonic, cutoff for positive-scoring molecules 3-fold increase, read-out: AK-based Prestwick Library Screening Results, E. coli (fold increase in extracellular AK activity)): 0.6
- fold induction at 50 µM ([4]; planktonic, cutoff for positive-scoring molecules 3-fold increase, read-out: AK-based Prestwick Library Screening Results, A. baumannii (fold increase in extracellular AK activity)): 0.5
- fold induction at 50 µM ([5]; planktonic, cutoff for positive-scoring molecules 3-fold increase, read-out: AK-based Prestwick Library Screening Results, E. cloacae (fold increase in extracellular AK activity)): 0.6
- fold induction at 50 µM ([6]; planktonic, cutoff for positive-scoring molecules 3-fold increase, read-out: AK-based Prestwick Library Screening Results, K. pneumoniae (fold increase in extracellular AK activity)): 0.2
- fold induction at 50 µM ([7]; planktonic, cutoff for positive-scoring molecules 3-fold increase, read-out: AK-based Prestwick Library Screening Results, E. faecium (fold increase in extracellular AK activity)): 1

SMILES: O=C(CCCN1CCC2(CC1)C(=O)NCN2c1ccccc1)c1ccc(F)cc1 [Spiperone]
- fold induction at 50 µM ([1]; planktonic P. aeruginosa, 384-well, cutoff for positive-scoring molecules 3-fold increase, read-out: AK-based Prestwick Library Screening Results: P. aeruginosa (increase in extracellular AK activity)): 1.2
- fold induction at 50 µM ([2]; planktonic S. aureus, 384-well, cutoff for positive-scoring molecules 3-fold increase, read-out: AK-based Prestwick Library Screening Results: S. aureus (increase in extracellular AK activity)): 1
- fold induction at 50 µM ([3]; planktonic E. coli, 384-well, cutoff for positive-scoring molecules 3-fold increase, read-out: AK-based Prestwick Library Screening Results: E. coli (increase in extracellular AK activity)): 1.3
- fold induction at 50 µM ([4]; planktonic A. baumannii, 384-well, cutoff for positive-scoring molecules 3-fold increase, read-out: AK-based Prestwick Library Screening Results: A. baumannii (increase in extracellular AK activity)): 1.2
- fold induction at 50 µM ([5]; planktonic E. cloacae, 384-well, cutoff for positive-scoring molecules 3-fold increase, read-out: AK-based Prestwick Library Screening Results: E. cloacae (increase in extracellular AK activity)): 1.3
- fold induction at 50 µM ([6]; planktonic K. pneumoniae, 384-well, cutoff for positive-scoring molecules 3-fold increase, read-out: AK-based Prestwick Library Screening Results: K. pneumoniae (increase in extracellular AK activity)): 0.9
- fold induction at 50 µM ([7]; planktonic E. faecium, 384-well, cutoff for positive-scoring molecules 3-fold increase, read-out: AK-based Prestwick Library Screening Results: E. faecium (increase in extracellular AK activity)): 1.2

SMILES: CC(=O)S[C@@H]1CC2=CC(=O)CC[C@]2(C)[C@H]2CC[C@@]3(C)[C@@H](CC[C@@]34CCC(=O)O4)[C@H]12 [Spironolactone]
- fold induction at 50 µM ([1]; 384-well format, cutoff for positive-scoring molecules 3-fold increase, read-out: AK-based Prestwick Library Screening Results, P. aeruginosa (increase in extracellular AK activity)): 1
- fold induction at 50 µM ([2]; 384-well format, cutoff for positive-scoring molecules 3-fold increase, read-out: AK-based Prestwick Library Screening Results, S. aureus (increase in extracellular AK activity)): 1.2
- fold induction at 50 µM ([3]; 384-well format, cutoff for positive-scoring molecules 3-fold increase, read-out: AK-based Prestwick Library Screening Results, E. coli (increase in extracellular AK activity)): 1.4
- fold induction at 50 µM ([4]; 384-well format, cutoff for positive-scoring molecules 3-fold increase, read-out: AK-based Prestwick Library Screening Results, A. baumannii (increase in extracellular AK activity)): 1.1
- fold induction at 50 µM ([5]; 384-well format, cutoff for positive-scoring molecules 3-fold increase, read-out: AK-based Prestwick Library Screening Results, E. cloacae (increase in extracellular AK activity)): 1.3
- fold induction at 50 µM ([6]; 384-well format, cutoff for positive-scoring molecules 3-fold increase, read-out: AK-based Prestwick Library Screening Results, K. pneumoniae (increase in extracellular AK activity)): 1
- fold induction at 50 µM ([7]; 384-well format, cutoff for positive-scoring molecules 3-fold increase, read-out: AK-based Prestwick Library Screening Results, E. faecium (increase in extracellular AK activity)): 1

— patent publication US10004701B2, “Methods and compositions for treating infection” (UNIVERSITY OF ROCHESTER, priority 2012, dated 2018)
